These results are taken from patent US9688672B2, “3-pyrimidin-4-yl-oxazolidin-2-ones as inhibitors of mutant IDH” (NOVARTIS AG, priority 2013, dated 2017).

A short description of series [1]: Metabolic stability in liver microsomes, Method II. The format is in vitro ADME.
Procedure: The in vitro metabolic stability assay was performed in a 96-deep-well plate with incubation at 37° C. 10 mM DMSO stock solution of the test compound was diluted 1:20 in acetonitrile, followed by an additional 1:10 dilution in 100 mM potassium phosphate buffer (KPi) to yield a final reaction concentration of 1 μM. […] 290 μL of cofactor solution (1.7 mM NADPH, 1.7 mM UDPGA, 3.4 mM MgCl in 100 mM KPi) was added to 200 μL of microsomal protein for a final volume of 490 μL. The reaction was initiated by adding 10 μL of the 50 μM test solution to 490 μL of microsomal protein for a final volume 500 μL enzyme-compound mixture.
At 0, 5, 15 and 30 minute time points in the reaction, reaction aliquots (75 μL) were removed and the reactions were terminated by the addition of 50:50 acetonitrile/methanol solution (75 μL) containing a mass spectrometry internal standard (0.5 μM glyburide). The samples were centrifuged at 4000 RPM for 10 minutes. […] The supernatants solution were analyzed by UPLC/MS/MS for quantitation of parent remaining compound under multiple reactions monitoring mode (MRM) in positive mode. […]
Series [2] is described as follows: Metabolic stability in liver microsomes, Method II. The series is classed as in vitro ADME. The procedure: Determination of Metabolic Stability in Liver Microsomes—Method II
The in vitro metabolic stability assay was performed in a 96-deep-well plate with incubation at 37° C. 10 mM DMSO stock solution of the test compound was diluted 1:20 in acetonitrile, followed by an additional 1:10 dilution in 100 mM potassium phosphate buffer (KPi) to yield a final reaction concentration of 1 μM. Immediately prior to the start of the experiment, respective animal or human liver microsomes (male Sprague-dawley rat, male CD-1 mouse, or pooled human liver microsomes) were diluted in 100 mM KPi to 1.25 mg/mL liver microsomal protein. […]
At 0, 5, 15 and 30 minute time points in the reaction, reaction aliquots (75 μL) were removed and the reactions were terminated by the addition of 50:50 acetonitrile/methanol solution (75 μL) containing a mass spectrometry internal standard (0.5 μM glyburide). […] The supernatants solution were analyzed by UPLC/MS/MS for quantitation of parent remaining compound under multiple reactions monitoring mode (MRM) in positive mode. […]
The injection volume was 5 μL. Compounds were detected using Analyst 1.5.1 software which collects intensity data for all fragments related to the molecular weight of the test compound. […]
The intrinsic clearance value, CLint (expressed as μL/min/mg microsomal protein) calculation is shown below: […]
This is another data set of the same source. In general terms: Microsomes from liver hold many membrane-bound enzymes, among them those of drug oxidation.

Take `C[C@H](Nc1ncc(F)c(N2C(=O)OC[C@@H]2[C@H](C)F)n1)c1cn(-c2ccc(Cl)cc2F)cn1` [Example 477, (R)-3-(2-(((S)-1-(1-(4-chloro-2-fluorophenyl)-1H-imidazol-4-yl)ethyl)amino)-5-fluoropyrimidin-4-yl)-4-((S)-1-fluoroethyl)oxazolidin-2-one]: the “Mouse microsomal stability CLint” value in series [1] was found to be 167.04 µL/min/mg. In addition, the “Human microsomal stability CLint” value in series [2] came to 30.44 µL/min/mg.
